pIC50: −log10 of the molar value. Numbered stars: 1 amine (or outer) side, 2 acyl side, 3 side chain; on linkers, the order of the positions; unused ones are H or OH. Bridge positions count the residues as written; N and C are the ends. Square brackets hold non-standard residues; d marks the D form. Peptide text beside a SMILES is read from it. * marks the point of attachment. Phe(3-CH2NH2) = O=C([C@H](Cc1cccc(CN[*:3])c1)N[*:1])[*:2]; Phe(2-CONH2) = NC(=O)c1ccccc1C[C@H](N)C(=O)O; Phe(4-CH2NH2) = NCc1ccc(C[C@H](N)C(=O)O)cc1; X5 = O=C([C@H](Cc1ccc(CO)cc1)N[*:1])[*:2]; Triazol3yl(1,2,4-5-NH2) = Nc1nc(*)n[nH]1; Picolinoyl(3,5-F2) = O=C(c1ncc(F)cc1F)*; Picolinoyl(5-F) = O=C(c1ccc(F)cn1)*; Orn(iPr) = CC(C)NCCC[C@H](N)C(=O)O; Benzoyl(4-F) = O=C(c1ccc(F)cc1)*; Oxazole2carbonyl = O=C(c1ncco1)*; 3Pal = N[C@@H](Cc1cccnc1)C(=O)O; X4 = O=C(c1ncccc1[N+](=O)[O-])*; Agp = N=C(N)NC[C@H](N)C(=O)O; Picolinoyl = O=C(c1ccccn1)*; ΔPro = O=C(O)[C@@H]1C=CCN1; Orn = NCCC[C@H](N)C(=O)O; X7 = O=C(c1cc(F)ccn1)*; X1 = O=C(c1ncccc1F)*
Experiments:
[1] = target: T1, hCGRP receptor (CALCRL:RAMP1) (Homo sapiens, UniProt O60894+Q16602); assay: CGRP receptor antagonist activity measured by cAMP assay (HTRF); type: cell-based; conditions: agonist human α-CGRP; for Emax: % MPE: percent of the maximal possible effect, read-out: hCGRP-R Efficacy Antag (%) Ave; for pIC50: GeneBLAzer CALCRL:RAMP1-CRE-bla Freestyle 293F cells, 30 minutes, read-out: hCGRP-R IC50 Ave
T1 construct: host or cells: GeneBLAzer CALCRL:RAMP1-CRE-bla Freestyle 293F

[2] = target: T2, hAM2 receptor (CALCRL:RAMP3) (Homo sapiens, UniProt O60896+Q16602); assay: AM2 receptor antagonist activity measured by cAMP assay (HTRF); type: cell-based; conditions: for Emax: % MPE: percent of the maximal possible effect, read-out: hAM2-R Efficacy Antag (%) Ave; for Emax / pIC50: agonist human adrenomedullin; for pIC50: GeneBLAzer CALCRL:RAMP3-CRE-bla Freestyle 293F cells, read-out: hAM2-R IC50 Ave; for selectivity ratio CGRP/AM2: selectivity ratio for hCGRP over hAM2, calculated from the IC50 values
T2 construct: expressed in transfected cells; host or cells: GeneBLAzer CALCRL:RAMP3-CRE-bla Freestyle 293F
T2 sequence (Q16602 23-461): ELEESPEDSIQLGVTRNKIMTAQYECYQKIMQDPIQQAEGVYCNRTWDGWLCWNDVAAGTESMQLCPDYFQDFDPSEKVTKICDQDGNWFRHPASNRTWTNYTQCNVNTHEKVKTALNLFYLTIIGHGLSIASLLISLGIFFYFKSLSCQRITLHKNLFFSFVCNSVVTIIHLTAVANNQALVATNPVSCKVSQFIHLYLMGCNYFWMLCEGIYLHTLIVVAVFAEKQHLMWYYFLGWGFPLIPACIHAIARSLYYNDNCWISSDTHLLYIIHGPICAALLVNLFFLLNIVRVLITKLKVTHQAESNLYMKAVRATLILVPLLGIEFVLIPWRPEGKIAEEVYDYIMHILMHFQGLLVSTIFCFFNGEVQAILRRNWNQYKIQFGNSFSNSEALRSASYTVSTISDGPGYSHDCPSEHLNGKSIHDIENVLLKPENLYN
T2 sequence (O60896 24-148): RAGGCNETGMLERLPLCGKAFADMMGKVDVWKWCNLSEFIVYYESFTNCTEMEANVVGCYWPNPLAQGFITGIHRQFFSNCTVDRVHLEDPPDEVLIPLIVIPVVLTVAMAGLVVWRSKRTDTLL

T1 sequence (Q16602 23-461): as the sequence (Q16602 23-461) above
T1 sequence (O60894 27-148): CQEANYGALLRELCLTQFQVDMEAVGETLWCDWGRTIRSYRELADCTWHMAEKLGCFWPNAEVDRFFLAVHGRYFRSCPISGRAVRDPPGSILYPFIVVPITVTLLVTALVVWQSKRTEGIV

Compound `CC(C)NCCC[C@@H]1NC(=O)[C@@H](NC(=O)[C@H](Cc2ccccc2C(N)=O)NC(=O)[C@H](NC(=O)c2ncco2)C(C)C)CSSC[C@@H](C(=O)N[C@@H](Cc2cccnc2)C(N)=O)NC(=O)[C@H](Cc2ccc(CO)cc2)NC(=O)[C@@H]2CCCN2C(=O)CNC(=O)[C@H](C(C)C)NC(=O)[C@H](CC(=O)O)NC1=O` [Compound 64, Oxazole-2-carbonyl-D-Val-Phe(2-Cbm)-c(Cys-Orn(iPr)-Asp-Val-Gly-Pro-Phe(4-CH2OH)-Cys)-3Pal-NH2] (Oxazole2carbonyl-[dV][Phe(2-CONH2)]C[Orn(iPr)]DVGP[X5]C[3Pal]-NH2; disulfide 3-10) has an Emax [1] of 101%, a pIC50 [1] of 9.92 and an Emax [2] of 99%. For the same compound, the pIC50 [2] was 5.90 and the “selectivity ratio CGRP/AM2” value [2] was 10594.

`CC(C)[C@@H]1NC(=O)[C@H](CC(=O)O)NC(=O)[C@H](CCCNC(=N)N)NC(=O)[C@@H](NC(=O)[C@H](Cc2ccc(O)cc2)NC(=O)[C@H](NC(=O)c2ncc(F)cc2F)C(C)C)CSSC[C@@H](C(=O)N[C@@H](Cc2cccnc2)C(N)=O)NC(=O)[C@H](Cc2ccccc2)NC(=O)[C@@H]2CCCN2C(=O)CNC1=O` [Compound 35] ({Picolinoyl(3,5-F2)}-[dV]YCRDVGPFC[3Pal]-NH2; disulfide 3-10) was tested, and the Emax [1] was 100%, the pIC50 [1] was 10.22 and the Emax [2] was 101%. The pIC50 [2] was 7.48 and the “selectivity ratio CGRP/AM2” value [2] was 580.

With `CC(C)[C@@H]1NC(=O)[C@H](CC(=O)O)NC(=O)[C@H](CCCNC(=N)N)NC(=O)[C@@H](NC(=O)[C@H](Cc2ccc(O)cc2)NC(=O)[C@H](NC(=O)c2cc(F)ccn2)C(C)C)CSSC[C@@H](C(=O)N[C@@H](Cc2cccnc2)C(N)=O)NC(=O)[C@H](Cc2ccccc2)NC(=O)[C@@H]2CCCN2C(=O)CNC1=O` [Compound 18] (X7-[dV]YCRDVGPFC[3Pal]-NH2; disulfide 3-10) the Emax [1] was 100%, the pIC50 [1] was 9.80 and the Emax [2] was 98%. The pIC50 [2] was 8.09 and the “selectivity ratio CGRP/AM2” value [2] was 52.

`CC(C)[C@@H]1NC(=O)[C@H](CC(=O)O)NC(=O)[C@H](CCCNc2nc(N)n[nH]2)NC(=O)[C@@H](NC(=O)[C@H](Cc2ccccc2C(N)=O)NC(=O)[C@H](NC(=O)c2ncco2)C(C)C)CSSC[C@@H](C(=O)N[C@@H](Cc2cccnc2)C(N)=O)NC(=O)[C@H](Cc2cccnc2)NC(=O)[C@@H]2CCCN2C(=O)CNC1=O` [Compound 52, Oxazole-2-carbonyl-D-Val-Phe(2-Cbm)-c(Cys-Orn(Atz)-Asp-Val-Gly-Pro-3Pal-Cys)-3Pal-NH2] (Oxazole2carbonyl-[dV][Phe(2-CONH2)]C[Orn](Triazol3yl(1,2,4-5-NH2))DVGP[3Pal]C[3Pal]-NH2; disulfide 3-10) showed an Emax [1] of 100% and an Emax [2] of 97%.

With `CC(C)NCCC[C@@H]1NC(=O)[C@@H](NC(=O)[C@H](Cc2ccccc2C(N)=O)NC(=O)[C@H](NC(=O)c2ccc(F)cn2)C(C)C)CSSC[C@@H](C(=O)N[C@@H](Cc2cccnc2)C(N)=O)NC(=O)[C@H](Cc2ccccc2C(N)=O)NC(=O)[C@@H]2C=CCN2C(=O)CNC(=O)[C@H](C(C)C)NC(=O)[C@H](CC(=O)O)NC1=O` [Compound 66, Picolinoyl(5-F)-D-Val-Phe(2-Cbm)-c(Cys-Orn(iPr)-Asp-Val-Gly-Dhp-Phe(2-Cbm)-Cys)-3Pal-NH2] ({Picolinoyl(5-F)}-[dV][Phe(2-CONH2)]C[Orn(iPr)]DVG[ΔPro][Phe(2-CONH2)]C[3Pal]-NH2; disulfide 3-10) the Emax [1] was 101%, the pIC50 [1] was 10.10 and the Emax [2] was 100%. For the same compound, the pIC50 [2] was 7.08 and the “selectivity ratio CGRP/AM2” value [2] was 1027.

`CC(C)[C@@H]1NC(=O)[C@H](CC(=O)O)NC(=O)[C@H](CCCNC(=N)N)NC(=O)[C@@H](NC(=O)[C@H](Cc2ccccc2C(N)=O)NC(=O)[C@H](NC(=O)c2ncccc2F)C(C)C)CSSC[C@@H](C(=O)N[C@@H](Cc2cccnc2)C(N)=O)NC(=O)[C@H](Cc2cccc(CN)c2)NC(=O)[C@@H]2C=CCN2C(=O)CNC1=O` [Compound 32, Picolinoyl(3-F)-D-Val-Phe(2-Cbm)-c(Cys-Arg-Asp-Val-Gly-Dhp-Phe(3-CH2NH2)-Cys)-3Pal-NH2] (X1-[dV][Phe(2-CONH2)]CRDVG[ΔPro][Phe(3-CH2NH2)]C[3Pal]-NH2; disulfide 3-10) showed an Emax [1] of 100%, a pIC50 [1] of 9.92 and an Emax [2] of 99%. For the same compound, the pIC50 [2] was 7.21 and the “selectivity ratio CGRP/AM2” value [2] was 498.

With `CC(C)[C@@H]1NC(=O)[C@H](CC(=O)O)NC(=O)[C@H](CCCNC(=N)N)NC(=O)[C@@H](NC(=O)[C@H](Cc2ccc(O)cc2)NC(=O)[C@H](NC(=O)c2ncccc2[N+](=O)[O-])C(C)C)CSSC[C@@H](C(=O)N[C@@H](Cc2cccnc2)C(N)=O)NC(=O)[C@H](Cc2ccccc2)NC(=O)[C@@H]2CCCN2C(=O)CNC1=O` [Compound 50] (X4-[dV]YCRDVGPFC[3Pal]-NH2; disulfide 3-10) the Emax [1] was 100%, the pIC50 [1] was 9.74 and the Emax [2] was 99%. The pIC50 [2] was 8.09 and the “selectivity ratio CGRP/AM2” value [2] was 46.

In the case of `CC(C)[C@@H]1NC(=O)[C@H](CC(=O)O)NC(=O)[C@H](CCCNC(=N)N)NC(=O)[C@@H](NC(=O)[C@H](Cc2ccc(O)cc2)NC(=O)[C@H](NC(=O)c2ccc(F)cc2)C(C)C)CSSC[C@@H](C(=O)N[C@@H](Cc2cccnc2)C(N)=O)NC(=O)[C@H](Cc2ccc(CN)cc2)NC(=O)[C@@H]2CCCN2C(=O)CNC1=O` [Compound 20, Bz(4-F)-D-Val-Tyr-c(Cys-Arg-Asp-Val-Gly-Pro-Phe(4-CH2NH2)-Cys)-3Pal-NH2] ({Benzoyl(4-F)}-[dV]YCRDVGP[Phe(4-CH2NH2)]C[3Pal]-NH2; disulfide 3-10), the Emax [1] was 100%, the pIC50 [1] was 9.74 and the Emax [2] was 100%. For the same compound, the pIC50 [2] was 7.27 and the “selectivity ratio CGRP/AM2” value [2] was 309.

`CC(C)[C@@H]1NC(=O)[C@H](CC(=O)O)NC(=O)[C@H](CCCNC(=N)N)NC(=O)[C@@H](NC(=O)[C@H](Cc2ccc(O)cc2)NC(=O)[C@H](NC(=O)c2ccc(F)cc2)C(C)C)CSSC[C@@H](C(=O)N[C@@H](Cc2cccnc2)C(N)=O)NC(=O)[C@H](Cc2cccnc2)NC(=O)[C@@H]2CCCN2C(=O)CNC1=O` [Compound 2, Bz(4-F)-D-Val-Tyr-c(Cys-Arg-Asp-Val-Gly-Pro-3Pal-Cys)-3Pal-NH2] ({Benzoyl(4-F)}-[dV]YCRDVGP[3Pal]C[3Pal]-NH2; disulfide 3-10) was tested, and the Emax [1] was 100%, the pIC50 [1] was 10.10 and the Emax [2] was 100%. The pIC50 [2] was 7.35 and the “selectivity ratio CGRP/AM2” value [2] was 555.

For `CC(C)NCCC[C@@H]1NC(=O)[C@@H](NC(=O)[C@H](Cc2ccccc2C(N)=O)NC(=O)[C@H](NC(=O)c2ccc(F)cn2)C(C)C)CSSC[C@@H](C(=O)N[C@@H](Cc2cccnc2)C(N)=O)NC(=O)[C@H](Cc2cccnc2)NC(=O)[C@@H]2C=CCN2C(=O)CNC(=O)[C@H](C(C)C)NC(=O)[C@H](CC(=O)O)NC1=O` [Compound 38, Picolinoyl(5-F)-D-Val-Phe(2-Cbm)-c(Cys-Orn(iPr)-Asp-Val-Gly-Dhp-3Pal-Cys)-3Pal-NH2] ({Picolinoyl(5-F)}-[dV][Phe(2-CONH2)]C[Orn(iPr)]DVG[ΔPro][3Pal]C[3Pal]-NH2; disulfide 3-10), the Emax [1] was 100%, the pIC50 [1] was 10.22 and the Emax [2] was 101%. For the same compound, the pIC50 [2] was 7.06 and the “selectivity ratio CGRP/AM2” value [2] was 1478.

With `CC(C)NCCC[C@@H]1NC(=O)[C@@H](NC(=O)[C@H](Cc2ccccc2C(N)=O)NC(=O)[C@H](NC(=O)c2ccc(F)cn2)C(C)C)CSSC[C@@H](C(=O)N[C@@H](Cc2cccnc2)C(N)=O)NC(=O)[C@H](Cc2cccnc2)NC(=O)[C@@H]2CCCN2C(=O)CNC(=O)[C@H](C(C)C)NC(=O)[C@H](CC(=O)O)NC1=O` [Compound 39, Picolinoyl(5-F)-D-Val-Phe(2-Cbm)-c(Cys-Orn(iPr)-Asp-Val-Gly-Pro-3Pal-Cys)-3Pal-NH2] ({Picolinoyl(5-F)}-[dV][Phe(2-CONH2)]C[Orn(iPr)]DVGP[3Pal]C[3Pal]-NH2; disulfide 3-10) the Emax [1] was 100%, the pIC50 [1] was 9.89 and the Emax [2] was 101%. The pIC50 [2] was 6.56 and the “selectivity ratio CGRP/AM2” value [2] was 2125.

Compound `CC(C)[C@@H]1NC(=O)[C@H](CC(=O)O)NC(=O)[C@H](CCCN)NC(=O)[C@@H](NC(=O)[C@H](Cc2ccc(O)cc2)NC(=O)[C@H](NC(=O)c2ccccn2)C(C)C)CSSC[C@@H](C(=O)N[C@@H](Cc2cccnc2)C(N)=O)NC(=O)[C@H](Cc2ccc(CO)cc2)NC(=O)[C@@H]2CCCN2C(=O)CNC1=O` [Compound 25, Picolinoyl-D-Val-Tyr-c(Cys-Orn-Asp-Val-Gly-Pro-Phe(4-CH2OH)-Cys)-3Pal-NH2] (Picolinoyl-[dV]YC[Orn]DVGP[X5]C[3Pal]-NH2; disulfide 3-10) has an Emax [1] of 100%, a pIC50 [1] of 10.15 and an Emax [2] of 100%. The pIC50 [2] was 7.11 and the “selectivity ratio CGRP/AM2” value [2] was 1071.

In the case of `CC(C)[C@@H]1NC(=O)[C@H](CC(=O)O)NC(=O)[C@H](CNC(=N)N)NC(=O)[C@@H](NC(=O)[C@H](Cc2ccc(O)cc2)NC(=O)[C@H](NC(=O)c2ccc(F)cc2)C(C)C)CSSC[C@@H](C(=O)N[C@@H](Cc2cccnc2)C(N)=O)NC(=O)[C@H](Cc2ccccc2)NC(=O)[C@@H]2CCCN2C(=O)CNC1=O` [Ref. Cpd. 1, Bz(4-F)-D-Val-Tyr-c(Cys-Agp-Asp-Val-Gly-Pro-Phe-Cys)-3Pal-NH2, reference compound] ({Benzoyl(4-F)}-[dV]YC[Agp]DVGPFC[3Pal]-NH2; disulfide 3-10), the Emax [1] was 100% and the Emax [2] was 98%.

— US9969775B2, “CGRP antagonist peptides” (Ferring B.V., priority 2015, dated 2018)
